Test results published in ChEMBL document CHEMBL1132521, “Synthesis and hypoglycemic effect of chrysin derivatives” (Bioorg Med Chem Lett, 1999).

Columns and labels:
Mus musculus [1] = assay: In vivo hypoglycemic activity after administration (40 mg/kg) in mice on day 7 was determined; type: functional
[2] = Ratio of hypoglycemic activity in mice was tested on day 7.; type: functional
Mus musculus [3] = assay: In vivo hypoglycemic activity after administration (40 mg/kg) in mice on day 0 was determined; type: functional
Mus musculus [4] = assay: In vivo hypoglycemic activity after administration (50 mg/kg) in mice on day 7 was determined; type: functional
Mus musculus [5] = assay: In vivo hypoglycemic activity after administration (50 mg/kg) in mice on day 0 was determined; type: functional
Mus musculus [6] = assay: In vivo hypoglycemic activity after administration (43 mg/kg) in mice on day 0 was determined; type: functional
Mus musculus [7] = assay: In vivo hypoglycemic activity after administration (43 mg/kg) in mice on day 7 was determined; type: functional
Rattus norvegicus [8] = assay: Body weight was determined in rat after oral administration of 500 mg/kg on day 7; type: functional
Mus musculus [9] = assay: Body weight was determined in mouse after oral administration of 100 mg/kg on day 7; type: functional
Rattus norvegicus [10] = assay: Lung weight was determined in rat after oral administration of 500 mg/kg; type: functional; design: unit not given beside the values
Rattus norvegicus [11] = assay: Daily food consumption was determined in rat after oral administration of 500 mg/kg; type: functional
Mus musculus [12] = assay: Abnormal symptoms was determined in mouse after oral administration of 5 mg/kg; - sign indicates abnormal symptoms in treated mouse; type: functional, organism-based; design: dose 5 mg/kg
Mus musculus [13] = assay: Daily water consumption was determined in mouse after oral administration of 500 mg/kg; type: functional
Rattus norvegicus [14] = assay: Abnormal symptoms was determined in rat after oral administration of 500 mg/kg; - sign indicates abnormal symptoms in treated mouse; type: functional, organism-based; design: dose 500 mg/kg
Rattus norvegicus [15] = assay: Liver weight was determined in rat after oral administration of 500 mg/kg; type: functional; design: unit not given beside the values
Mus musculus [16] = assay: Body weight was determined in mouse after oral administration of 5 mg/kg on day 7; type: functional
Mus musculus [17] = assay: Body weight was determined in mouse after oral administration of 5 mg/kg on day 0; type: functional
Mus musculus [18] = assay: Body weight was determined in mouse after oral administration of 500 mg/kg on day 7; type: functional
Mus musculus [19] = assay: Body weight was determined in mouse after oral administration of 20 mg/kg on day 7; type: functional
Mus musculus [20] = assay: Body weight was determined in mouse after oral administration of 500 mg/kg on day 0; type: functional
Mus musculus [21] = assay: Daily food consumption was determined in mouse after oral administration of 20 mg/kg; type: functional
Rattus norvegicus [22] = assay: Kidney weight was determined in rat after oral administration of 500 mg/kg; type: functional
Mus musculus [23] = assay: Daily food consumption was determined in mouse after oral administration of 5 mg/kg; type: functional
Mus musculus [24] = assay: Abnormal symptoms was determined in mouse after oral administration of 100 mg/kg; - sign indicates abnormal symptoms in treated mouse; type: functional, organism-based; design: dose 100 mg/kg
Rattus norvegicus [25] = assay: Spleen weight was determined in rat after oral administration of 500 mg/kg; type: functional; design: unit not given beside the values
Mus musculus [26] = assay: Body weight was determined in mouse after oral administration of 100 mg/kg on day 0; type: functional
Rattus norvegicus [27] = assay: Daily water consumption was determined in rat after oral administration of 500 mg/kg; type: functional
Mus musculus [28] = assay: Daily water consumption was determined in mouse after oral administration of 5 mg/kg; type: functional
Mus musculus [29] = assay: Daily water consumption was determined in mouse after oral administration of 100 mg/kg; type: functional
Mus musculus [30] = assay: Abnormal symptoms was determined in mouse after oral administration of 20 mg/kg; - sign indicates abnormal symptoms in treated mouse; type: functional, organism-based; design: dose 20 mg/kg
Rattus norvegicus [31] = assay: Body weight was determined in rat after oral administration of 500 mg/kg on day 0; type: functional
Mus musculus [32] = assay: Abnormal symptoms was determined in mouse after oral administration of 500 mg/kg; - sign indicates abnormal symptoms in treated mouse; type: functional, organism-based; design: dose 500 mg/kg
Mus musculus [33] = assay: In vivo hypoglycemic activity after administration (42 mg/kg) in mice on day 0 was determined; type: functional
Mus musculus [34] = assay: Daily food consumption was determined in mouse after oral administration of 500 mg/kg; type: functional
Mus musculus [35] = assay: Daily water consumption was determined in mouse after oral administration of 20 mg/kg; type: functional
Mus musculus [36] = assay: Daily food consumption was determined in mouse after oral administration of 100 mg/kg; type: functional
Mus musculus [37] = assay: Body weight was determined in mouse after oral administration of 20 mg/kg on day 0; type: functional
Mus musculus [38] = assay: In vivo hypoglycemic activity after administration (42 mg/kg) in mice on day 7 was determined; type: functional
Mus musculus [39] = assay: In vivo hypoglycemic activity after administration (45 mg/kg) in mice on day 0 was determined; type: functional
Mus musculus [40] = assay: In vivo hypoglycemic activity after administration (45 mg/kg) in mice on day 7 was determined; type: functional

Q: What does the source list for `O=C(Oc1cc(O)c2c(=O)cc(-c3ccccc3)oc2c1)c1ccc(F)cc1`?
A: Blood glucose (Mus musculus [1]): 362.5 mg/dL; Ratio [2]: 79.3; Blood glucose (Mus musculus [3]): 458.2 mg/dL

Q: With `O=C(Cc1ccccc1)Oc1cc(O)c2c(=O)cc(-c3ccccc3)oc2c1` as the compound, how does the Blood glucose (Mus musculus [4]) read?
A: Its Blood glucose is 515.6 mg/dL.

Q: And the Ratio [2]?
A: The Ratio was 103.9.

Q: And the Blood glucose (Mus musculus [5])?
A: Its Blood glucose is 496.2 mg/dL.

Q: With `CC(=O)Oc1cc(OC(C)=O)c2c(=O)cc(-c3ccccc3)oc2c1` [CHRYSIN DIACETATE] as the compound, how does the Blood glucose (Mus musculus [6]) read?
A: Its Blood glucose is 472 mg/dL.

Q: What about the Ratio [2] of the same compound?
A: Its Ratio is 72.4.

Q: What about the Blood glucose (Mus musculus [7]) of the same compound?
A: The Blood glucose was 341.5 mg/dL.

Q: For `CCCOc1cc(OCCC)c2c(=O)cc(-c3ccccc3)oc2c1`, which Body weight (Rattus norvegicus [8]) is on record?
A: The Body weight was 300.8.

Q: And the Body weight (Mus musculus [9])?
A: The Body weight was 32.1.

Q: What about the Organ weight (Rattus norvegicus [10]) of the same compound?
A: The Organ weight was 1.23.

Q: What about the Food intake (Rattus norvegicus [11]) of the same compound?
A: Its Food intake is 115.41 g.

Q: What about the Activity (Mus musculus [12]) of the same compound?
A: The Activity was “abnormal symptoms in treated mouse”.

Q: And the Water consumption (Mus musculus [13])?
A: Its Water consumption is 81.75 mL.

Q: And the Activity (Rattus norvegicus [14])?
A: The Activity was “abnormal symptoms in treated mouse”.

Q: And the Organ weight (Rattus norvegicus [15])?
A: Its Organ weight is 9.64.

Q: What about the Body weight (Mus musculus [16]) of the same compound?
A: The Body weight was 28.2.

Q: And the Body weight (Mus musculus [17])?
A: The Body weight was 22.3.

Q: What about the Body weight (Mus musculus [18]) of the same compound?
A: Its Body weight is 29.5.

Q: What about the Body weight (Mus musculus [19]) of the same compound?
A: Its Body weight is 31.9.

Q: And the Body weight (Mus musculus [20])?
A: Its Body weight is 22.7.

Q: What about the Food intake (Mus musculus [21]) of the same compound?
A: Its Food intake is 53.2 g.

Q: What about the Organ weight (Rattus norvegicus [22]) of the same compound?
A: Its Organ weight is 0.97.

Q: What about the Food intake (Mus musculus [23]) of the same compound?
A: The Food intake was 48.09 g.

Q: And the Activity (Mus musculus [24])?
A: Its Activity is “abnormal symptoms in treated mouse”.

Q: And the Ratio [2]?
A: The Ratio was 64.

Q: And the Organ weight (Rattus norvegicus [25])?
A: The Organ weight was 0.61.

Q: And the Body weight (Mus musculus [26])?
A: The Body weight was 25.2.

Q: What about the Water consumption (Rattus norvegicus [27]) of the same compound?
A: Its Water consumption is 218.5 mL.

Q: And the Water consumption (Mus musculus [28])?
A: The Water consumption was 80 mL.

Q: What about the Water consumption (Mus musculus [29]) of the same compound?
A: Its Water consumption is 81.75 mL.

Q: What about the Activity (Mus musculus [30]) of the same compound?
A: Its Activity is “abnormal symptoms in treated mouse”.

Q: And the Body weight (Rattus norvegicus [31])?
A: The Body weight was 235.8.

Q: And the Activity (Mus musculus [32])?
A: Its Activity is “abnormal symptoms in treated mouse”.

Q: What about the Blood glucose (Mus musculus [33]) of the same compound?
A: Its Blood glucose is 448.3 mg/dL.

Q: What about the Food intake (Mus musculus [34]) of the same compound?
A: Its Food intake is 49.87 g.

Q: And the Water consumption (Mus musculus [35])?
A: Its Water consumption is 80.92 mL.

Q: And the Food intake (Mus musculus [36])?
A: Its Food intake is 49.77 g.

Q: And the Body weight (Mus musculus [37])?
A: The Body weight was 25.3.

Q: And the Blood glucose (Mus musculus [38])?
A: The Blood glucose was 287 mg/dL.

Q: Which results are given for `CCCCOc1cc(OCCCC)c2c(=O)cc(-c3ccccc3)oc2c1`?
A: Blood glucose (Mus musculus [6]): 454.4 mg/dL; Ratio [2]: 89.3; Blood glucose (Mus musculus [7]): 405.7 mg/dL

Q: With `CCCOc1cc(O)c2c(=O)cc(-c3ccccc3)oc2c1` as the compound, how does the Blood glucose (Mus musculus [4]) read?
A: Its Blood glucose is 237.8 mg/dL.

Q: And the Ratio [2]?
A: Its Ratio is 59.5.

Q: What about the Blood glucose (Mus musculus [5]) of the same compound?
A: Its Blood glucose is 400 mg/dL.

Q: Which Blood glucose (Mus musculus [39]) does the source give for `CCOc1cc(OCC)c2c(=O)cc(-c3ccccc3)oc2c1` here?
A: Its Blood glucose is 436.6 mg/dL.

Q: What about the Blood glucose (Mus musculus [40]) of the same compound?
A: The Blood glucose was 400.5 mg/dL.

Q: And the Ratio [2]?
A: Its Ratio is 91.7.

Q: Which results are given for `CCCCCCCCCCCCOc1cc(O)c2c(=O)cc(-c3ccccc3)oc2c1`?
A: Blood glucose (Mus musculus [4]): 381.3 mg/dL; Ratio [2]: 81.9; Blood glucose (Mus musculus [5]): 465.6 mg/dL

Q: Which Blood glucose (Mus musculus [4]) does the source give for `O=C(/C=C/c1ccccc1)Oc1cc(O)c2c(=O)cc(-c3ccccc3)oc2c1` here?
A: Its Blood glucose is 407.9 mg/dL.

Q: And the Ratio [2]?
A: Its Ratio is 92.6.

Q: And the Blood glucose (Mus musculus [5])?
A: The Blood glucose was 440.6 mg/dL.
